Biological target: acetylcholinesterase enzyme (Homo sapiens, UniProt P22303)
Assay: Electrochemical sensor with acetylthiocholine reservoir in buffer containing acetylcholinesterase; inhibitor added, then sensor moved to fresh buffer
Type: biochemical
Conditions: 20 mM PBS, pH 7.4, 1 U/mL acetylcholinesterase, FIG. 13
Experimental: In this example, a buffer was created to simulate endogenous cholinesterase activity in the interstitial fluid of a test subject. A sensor similar to that described in Example 6 was created with 100 nL of 1 M acetylthiocholine in the reactant reservoir. The sensor was placed in a buffer solution of 20 mM PBS, pH 7.4, and 1 U/mL of acetylcholinesterase enzyme to simulate a test subject. A reversible acetylcholinesterase inhibitor (Neostigmine Bromide) was then added to the buffer solution to simulate an organophosphate. The sensor was then removed from the buffer solution containing the inhibitor and placed in fresh buffer solution.

Sequence of acetylcholinesterase enzyme (P22303 32-614, species assumed): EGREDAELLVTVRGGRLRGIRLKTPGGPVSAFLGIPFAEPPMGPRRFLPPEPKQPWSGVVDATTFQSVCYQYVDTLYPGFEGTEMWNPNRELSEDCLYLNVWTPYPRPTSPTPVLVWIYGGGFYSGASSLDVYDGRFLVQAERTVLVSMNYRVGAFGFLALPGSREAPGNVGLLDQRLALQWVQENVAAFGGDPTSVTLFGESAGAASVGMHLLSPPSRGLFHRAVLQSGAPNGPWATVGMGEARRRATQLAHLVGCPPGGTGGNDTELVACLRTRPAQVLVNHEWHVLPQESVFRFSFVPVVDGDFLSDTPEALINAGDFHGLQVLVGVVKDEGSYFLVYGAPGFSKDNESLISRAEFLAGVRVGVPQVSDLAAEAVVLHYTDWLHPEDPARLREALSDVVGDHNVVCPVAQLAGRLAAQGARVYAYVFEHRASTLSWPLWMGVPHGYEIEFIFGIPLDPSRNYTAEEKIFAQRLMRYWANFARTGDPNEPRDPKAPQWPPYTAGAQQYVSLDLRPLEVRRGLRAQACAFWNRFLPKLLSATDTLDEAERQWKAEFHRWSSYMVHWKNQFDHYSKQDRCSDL

CN(C)C(=O)Oc1cccc([N+](C)(C)C)c1 [Neostigmine Bromide]
sensor signal created by acetylcholinesterase interacting with acetylthiocholine, after addition of the inhibitor (100 nL of 1 M acetylthiocholine in reservoir): fell off after the addition of the inhibitor | sensor signal after sensor removed from inhibitor solution and placed in fresh buffer (reversibility) (fresh buffer): the signal rebounded
